Test results reported in patent US20160184276A1, “Sphingosine kinase inhibition for the treatment and prevention of obstetrical disorders” (priority 2014, published 2016).
Entries after “also recorded” stand apart in the source; their conditions may differ.

Columns and labels:
[1] = tested on: Tnfα, Il-1β, Il-6 and ECE-1 in placentas; experiment: Western blot analysis of placental lysates from LPS-stimulated mice; type: in vivo; conditions: SKI II treated group vs LPS control group
Method: (§1) In Vivo Assay. A total of 17 timed pregnant embryonic day (E) 15.5 mice, weighing between 28 and 35 g, were used for in vivo studies. The control group (n=7) was injected intraperitoneally (ip) with 50 mg/kg lipopolysaccharide (LPS) (serotype 026:B6; Sigma) dissolved in 0.5 ml PBS at T=0 and 50 μl PEG 400 at T=1 and 7 h. The treatment group (n=7) was also injected ip with the same dose of LPS and then injected with 50 mg/kg SphK inhibitor (SKI II) dissolved in PEG 400 at T=1 and 7 h. The sham group (n=3) was injected ip with 0.5 ml PBS at T=0 and 50 μl PEG 400 at T=1 and 7 h. After injections at T=7 h, mice were continuously observed for time of delivery and number of pups dropped. […] All mice were euthanized by carbon dioxide asphyxiation and necropsied to confirm pregnancy and the number of pups retained in utero was recorded. The retained placentas and uteri were harvested and stored at −80° C. or in 10% neutral buffered formalin at room temperature.
Gel Electrophoresis. Frozen placentas were allowed to thaw on ice. Tissues were homogenized in 0.25 ml ice cold lysis buffer, using a Polytron homogenizer. The samples were homogenized on ice for 2 min at 15 min intervals. This procedure was continued for 2 h and the final homogenates were centrifuged at 10,000×g for 10 min. Volumes of supernatant containing […] of protein based on BCA assay, using bovine serum albumin as standard, were diluted in_NuPAGE® LDS sample buffer and the samples were heated at 95° C. for 5 minutes. Bis-Tris gels were used for protein separation. Gel electrophoresis was carried out in an XCell SureLock Mini-Cell apparatus. The gels were allowed to run for 45 minutes with MOPS running buffer at 125 mA and 200V. Proteins were then transferred to a polyvinylidene difluoride (PVDF) membrane, using an XCell II Blot Module. Transfer was carried out for 2 h on ice at a 170 mA current and a constant voltage of 30 V with NuPAGE transfer buffer
Western Blot Analysis. […] The membranes were analyzed for different proteins using their respective primary antibodies, i.e. TNFα, IL-1β, IL-6, IL-10 and ECE-1 diluted in the blocker solution overnight at 4° C. […] They were then treated with ECL Plus western blotting detection system and the chemiluminescence produced by the chemical reaction was detected by exposure to an autoradiography film. […] The protein content was quantified using Image J software (from NIH). […]
(§2) Statistical Analysis. For in vivo studies, the effect of SKI II on the percent of LPS stimulated mice delivering and on the percent of pups rescued from spontaneous abortion was evaluated with the Chi square and Fisher exact tests, respectively. […]

[2] = tested on: inflammatory cells (neutrophils) in placental labyrinth; experiment: Histology (H & E): inflammatory cell infiltration of placental labyrinth; type: in vivo; conditions: SKI II vs LPS-induced mice; P<0.05
Method: as §1, with “The retained placentas and uteri were harvested and stored at −80° C. or in 10% neutral buffered formalin at room temperature.” left out
Histology. […] The number of polymorphonuclear neutrophils (PMNs) were counted in the three fields and the average value was recorded. Based on the average number of neutrophils per 400× field recorded, the slides were assigned grades as follows: 0:0-5 cells, 1:6-50 cells, 2:51-100 and 3:greater than 100. […]
as §2

[3] = tested on: LPS-stimulated timed pregnant mice; experiment: LPS-induced preterm birth in timed pregnant mice (in vivo assay)
Method: as §1
(§3) Statistical Analysis. For in vivo studies, the effect of SKI II on the percent of LPS stimulated mice delivering and on the percent of pups rescued from spontaneous abortion was evaluated with the Chi square and Fisher exact tests, respectively. Differences in rates of PTB and rates of pups delivered over time were evaluated with log-rank (Mantel-Cox) or Gehan-Breslow-Wilcoxon test. The U-test along with Analysis of Variance (ANOVA) and Tukey's multiple comparison test were used to evaluate differences in inflammatory infiltration in histologic sections. Differences in mean expression of cytokine proteins in immunoblots and in immunohistochemistry were determined using ANOVA with Tukey's multiple comparison test.

[4] = tested on: Tnfα, Il-1β, Il-6 in placental labyrinth; experiment: Immunohistochemistry of cytokines in placental labyrinth; type: in vivo, mice; conditions: SKI II vs LPS
Method: as §1
Immunohistochemistry (IHC). Formalin fixed paraffin-embedded tissue sections were used for IHC. The sections were deparaffinized by washing in xylene for 3 min. They were then rehydrated by washing in 100% isopropyl alcohol (2 changes), 95% alcohol, 80% alcohol, 70% alcohol and distilled water for 3 min each. The sections were incubated for 5 min with peroxidase block (3% hydrogen peroxide in water) and washed in distilled water for 3 min. […] Image-Pro Premier DAB analysis software was used for quantification of the results. […]
as §3, with “The U-test along with Analysis of Variance (ANOVA) and Tukey's multiple comparison test were used to evaluate differences in inflammatory infiltration in histologic sections.” left out

**Q.** With Oc1ccc(Nc2nc(-c3ccc(Cl)cc3)cs2)cc1 [SKI II] as the compound, how does the “ECE-1 expression in placenta (Western blot)” value [1] read?
**A.** clearly suppressed; also recorded: significantly suppressed

**Q.** What about the “Il-1β expression in placental lysates (Western blot)” value ([1]; P<0.05) of the same compound?
**A.** reduced; also recorded: significantly suppressed

**Q.** And the “Il-6 expression in placental lysates (Western blot)” value ([1]; P<0.05)?
**A.** reduced; also recorded: significantly suppressed

**Q.** And the “Tnfα expression in placental lysates (Western blot)” value ([1]; P<0.05)?
**A.** reduced; also recorded: significantly suppressed

**Q.** And the “Inflammatory cell infiltrate in placental labyrinth” value [2]?
**A.** significantly reduced; also recorded: subsides significantly

**Q.** What about the “Macroscopic congenital anomalies in pups” value ([3]; 97 pups of LPS control and SKI II groups) of the same compound?
**A.** no macroscopic congenital anomalies

**Q.** And the “Percent of mice delivered prematurely” value ([3]; LPS 50 mg/kg, SKI II 50 mg/kg at T=1 and 7 h, 1 out of 7 mice, 24 h)?
**A.** 14%

**Q.** And the “Percent of pups dropped prematurely” value ([3]; LPS 50 mg/kg, SKI II 50 mg/kg at T=1 and 7 h, 2 out of 50 pups, 24 h)?
**A.** 4%

**Q.** And the “Rate of pup survival (Kaplan-Meier survival curves, log rank test)” value ([3]; SKI II treated vs LPS control dams, P<0.0001)?
**A.** statistically significant difference; also recorded: significantly improved

**Q.** And the “Litter size, fetal growth and development” value ([3]; observed throughout the study)?
**A.** No significant changes

**Q.** What about the “Placental labyrinthine level of Il-1β (immunohistochemistry)” value ([4]; P<0.0001) of the same compound?
**A.** significantly reduced; also recorded: significantly suppressed

**Q.** And the “Placental labyrinthine level of Tnfα (immunohistochemistry)” value ([4]; P<0.0001)?
**A.** significantly reduced; also recorded: significantly suppressed

**Q.** And the “Placental labyrinthine level of Il-6 (immunohistochemistry)” value ([4]; P<0.01)?
**A.** significantly reduced; also recorded: significantly suppressed
